# Experimental data as given in EP0745595A1, “3-(3-Aryloxyphenyl)-1-(substituted methyl)-s-triazine-2,4,6-oxo or thiotrione herbicidal agents” (American Cyanamid Company, priority 1995, dated 1996).
# Columns and labels:
# Format in all cases: in vivo
# GALIUM APARINE = assay: Preemergence herbicidal evaluation, GALAP (Galium); conditions: rated four to five weeks after treatment
# Summary of the method: (§1)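 First, seeds in potting soil are sown atop soil in cups. Next, the surface is sprayed with test compound in aqueous acetone at roughly 0.125 to 0.50 kg per hectare. After four to five weeks of greenhouse care, each cup is scored 0-9 against a control.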
# [1] = system: GLYCINE MAX(L) MERR. CV. WILLIAMS; assay: Postemergence herbicidal evaluation, GLXMAW (Soybean, Williams); set-up: key to GLXMAW rating / Herbicidal effect rating, GLXMAW / GLXMAW: 0-9 visual rating scale vs untreated control
# Summary of the method: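 Soybean seedlings (Williams) were raised in jiffy flats for roughly two weeks, then sprayed postemergence through a nozzle at 40 psi with test compound dispersed in 50/50 acetone/water containing 0.5% TWEEN®20. Treated plants were kept on greenhouse benches under normal care and visually rated on a 0-9 scale four to five weeks later.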
# SAGITTARIA PYGMAEA, L. = assay: Preemergence weed control under flooded paddy conditions, SAGPY (Arrowhead (Pygmaea)); conditions: preemergence, 3-4 weeks after treatment
# Summary of the method: (§2)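 Seeds or propagules were planted 0.5 cm deep in silt loam, with flood water held at 1.5 to 3 cm. Compound in 50/50 aqueous/acetone was pipetted into the flood water at about 0.5, 0.25, 0.125 and 0.063 kg/ha. Injury was rated visually on a 0-9 scale against a control 3-4 weeks after treatment.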
# [2] = system: ORYZA SATIVA, L. TEBONNET; assay: Rice tolerance to post-transplant applications under flooded paddy conditions, ORYSAT (Rice, Tebonnet); conditions: post-transplant rice, 3-4 weeks after treatment
# Summary of the method: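 Two ten-day-old Tebonnet rice seedlings transplanted into silt loam, flooded 1.5–3 cm; three days later the water surface treated with compounds in acetone/water at about 0.5, 0.25, 0.125 and 0.063 kg/ha. Visual 0–9 injury rating versus control after 3–4 weeks in greenhouse.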
# IPOMOEA SPP. = assay: Preemergence herbicidal evaluation, IPOSS (Morningglory spp.); conditions: rated four to five weeks after treatment
# Summary of the method: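 Seeds of morningglory (Ipomoea spp.) were mixed with potting soil and sown on roughly one inch of soil in pint cups for a preemergence herbicide test. The cups were put on greenhouse benches, watered, and maintained by standard greenhouse practice. Four to five weeks after treatment each cup was scored visually on a 0-9 scale against a control.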
# [3] = system: SETARIA VIRIDIS, (L) BEAU; assay: Preemergence herbicidal evaluation, SETVI (Foxtail, Green); conditions: rated four to five weeks after treatment
# Text: Results of herbicide evaluation are expressed on a rating scale (0-9). The scale is based upon a visual observation of plant stand, vigor, malformation, size, chlorosis and overall plant appearance as compared with a control.
# The preemergence herbicidal activity of the test compounds of the present invention is exemplified by the following tests in which the seeds of a variety of monocotyledonous and dicotyledonous plants are separately mixed with potting soil and planted on top of approximately one inch of soil in separate pint cups. […] The treated cups are then placed on greenhouse benches, watered and cared for in accordance with conventional greenhouse procedures. From four to five weeks after treatment, the tests are terminated and each cup is examined and rated according to the rating system provided in Example 40.
# The compounds evaluated are reported by compound number given in Example 40.
# [4] = system: ECHINOCHLOA CRUS-GALLI, (L) BEAU; assay: Preemergence herbicidal evaluation, ECHCG (Barnyardgrass); conditions: rated four to five weeks after treatment
# Summary of the method: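 Barnyardgrass seeds were mixed with potting soil and planted on about one inch of soil in pint cups for preemergence testing. Treated cups were kept on greenhouse benches, watered and maintained by standard greenhouse practice. After four to five weeks, each cup was visually rated on a 0-9 scale against an untreated control.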
# [5] = system: ORYZA SATIVA, L. TEBONNET; assay: Preemergence herbicidal evaluation, ORYSAT (Rice, Tebonnet); conditions: rated four to five weeks after treatment
# Summary of the method: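 Seeds of rice (Oryza sativa, Tebonnet) were mixed with potting soil and sown on about one inch of soil in pint cups, then treated preemergence. Cups sat on greenhouse benches, watered and tended by standard greenhouse practice. Four to five weeks after treatment, plants were visually scored on a 0-9 scale relative to a control.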
# CHENOPODIUM ALBUM, L. = assay: Postemergence herbicidal evaluation, CHEAL (Lambsquarters, Common)
# Summary of the method: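 Seedlings of common lambsquarters (Chenopodium album) were raised in jiffy flats for roughly two weeks, then sprayed postemergence through a nozzle at 40 psi with test compound dispersed in 50/50 acetone/water containing 0.5% TWEEN®20 surfactant. Plants were kept on greenhouse benches under standard care and rated visually on a 0-9 scale versus controls.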
# [6] = system: TRITICUM AESTIVUM, CV. APOLLO; assay: Preemergence herbicidal evaluation, TRZAWO (Wheat, Winter, CV. APOLLO); conditions: rated four to five weeks after treatment
# Summary of the method: as §1
# ZEA MAYS L. = assay: Preemergence herbicidal evaluation, ZEAMX (Corn, Field); conditions: rated four to five weeks after treatment
# Summary of the method: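 Corn (Zea mays) seeds were mixed with potting soil and planted on about one inch of soil in pint cups, then treated preemergence. Cups were kept on greenhouse benches, watered and maintained conventionally, and after four to five weeks were visually rated on a 0-9 scale versus an untreated control.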
# [7] = system: AMBROSIA ARTEMISIIFOLIA, L.; assay: Preemergence herbicidal evaluation, AMBEL (Ragweed, Common); conditions: rated four to five weeks after treatment
# Summary of the method: as §1
# [8] = system: CYPERUS SEROTINUS, ROTTB.; assay: Preemergence weed control under flooded paddy conditions, CYPSE (Flatsedge); conditions: preemergence, 3-4 weeks after treatment
# Summary of the method: as §2
# [9] = system: GLYCINE MAX(L) MERR. CV. WILLIAMS; assay: Preemergence herbicidal evaluation, GLXMAW (Soybean, Williams); conditions: rated four to five weeks after treatment
# Summary of the method: as §1
# [10] = system: ABUTILON THEOPHRASTI, MEDIC.; assay: Preemergence herbicidal evaluation, ABUTH (Velvetleaf); conditions: rated four to five weeks after treatment
# Summary of the method: as §1
compound,measurement,setting,value
COC(=O)Cn1c(=O)n(C)c(=O)n(-c2cc(Oc3ccc([S+](C)[O-])cc3Cl)ccc2[N+](=O)[O-])c1=O (stereo not drawn) [Compound 36],GALAP herbicidal rating,GALIUM APARINE; Rate 0.125 kg/ha,0.0
same,GALAP herbicidal rating,GALIUM APARINE; Rate 0.250 kg/ha,0.0
same,GALAP herbicidal rating,GALIUM APARINE; Rate 0.500 kg/ha,0.0
same,GLXMAW rating,[1]; Rate 0.125 kg/ha,5.0
same,GLXMAW rating,[1]; Rate 0.250 kg/ha,5.0
same,GLXMAW rating,[1]; Rate 0.500 kg/ha,5.0
same,"Herbicidal effect rating, SAGPY","SAGITTARIA PYGMAEA, L.; 0.063 kg/ha",0.0
same,"Herbicidal effect rating, SAGPY","SAGITTARIA PYGMAEA, L.; 0.125 kg/ha",0.0
same,"Herbicidal effect rating, SAGPY","SAGITTARIA PYGMAEA, L.; 0.250 kg/ha",0.0
same,"Herbicidal effect rating, SAGPY","SAGITTARIA PYGMAEA, L.; 0.500 kg/ha",0.0
same,"Herbicidal effect rating, ORYSAT",[2]; 0.063 kg/ha,0.0
same,"Herbicidal effect rating, ORYSAT",[2]; 0.125 kg/ha,0.0
same,"Herbicidal effect rating, ORYSAT",[2]; 0.250 kg/ha,0.0
same,"Herbicidal effect rating, ORYSAT",[2]; 0.500 kg/ha,0.0
same,IPOSS herbicidal rating,IPOMOEA SPP.; Rate 0.125 kg/ha,0.0
same,IPOSS herbicidal rating,IPOMOEA SPP.; Rate 0.250 kg/ha,0.0
same,IPOSS herbicidal rating,IPOMOEA SPP.; Rate 0.500 kg/ha,0.0
same,SETVI herbicidal rating,[3]; Rate 0.125 kg/ha,0.0
same,SETVI herbicidal rating,[3]; Rate 0.250 kg/ha,0.0
same,SETVI herbicidal rating,[3]; Rate 0.500 kg/ha,0.0
same,ECHCG herbicidal rating,[4]; Rate 0.125 kg/ha,0.0
same,ECHCG herbicidal rating,[4]; Rate 0.250 kg/ha,0.0
same,ECHCG herbicidal rating,[4]; Rate 0.500 kg/ha,0.0
same,ORYSAT herbicidal rating,[5]; Rate 0.125 kg/ha,0.0
same,ORYSAT herbicidal rating,[5]; Rate 0.250 kg/ha,0.0
same,ORYSAT herbicidal rating,[5]; Rate 0.500 kg/ha,0.0
same,CHEAL rating,"CHENOPODIUM ALBUM, L.; Rate 0.125 kg/ha",8.0
same,CHEAL rating,"CHENOPODIUM ALBUM, L.; Rate 0.250 kg/ha",8.0
same,CHEAL rating,"CHENOPODIUM ALBUM, L.; Rate 0.500 kg/ha",8.0
same,TRZAWO herbicidal rating,[6]; Rate 0.125 kg/ha,0.0
same,TRZAWO herbicidal rating,[6]; Rate 0.250 kg/ha,0.0
same,TRZAWO herbicidal rating,[6]; Rate 0.500 kg/ha,0.0
same,ZEAMX herbicidal rating,ZEA MAYS L.; Rate 0.125 kg/ha,0.0
same,ZEAMX herbicidal rating,ZEA MAYS L.; Rate 0.250 kg/ha,0.0
same,ZEAMX herbicidal rating,ZEA MAYS L.; Rate 0.500 kg/ha,0.0
same,AMBEL herbicidal rating,[7]; Rate 0.125 kg/ha,0.0
same,AMBEL herbicidal rating,[7]; Rate 0.250 kg/ha,0.0
same,AMBEL herbicidal rating,[7]; Rate 0.500 kg/ha,0.0
same,"Herbicidal effect rating, CYPSE",[8]; 0.063 kg/ha,0.0
same,"Herbicidal effect rating, CYPSE",[8]; 0.125 kg/ha,0.0
same,"Herbicidal effect rating, CYPSE",[8]; 0.250 kg/ha,0.0
same,"Herbicidal effect rating, CYPSE",[8]; 0.500 kg/ha,0.0
same,GLXMAW herbicidal rating,[9]; Rate 0.125 kg/ha,0.0
same,GLXMAW herbicidal rating,[9]; Rate 0.250 kg/ha,0.0
same,GLXMAW herbicidal rating,[9]; Rate 0.500 kg/ha,0.0
same,ABUTH herbicidal rating,[10]; Rate 0.125 kg/ha,0.0
same,ABUTH herbicidal rating,[10]; Rate 0.250 kg/ha,0.0
same,ABUTH herbicidal rating,[10]; Rate 0.500 kg/ha,0.0
